From patent publication US20260146046A1, “BICYCLIC FERROPORTIN INHIBITORS” (Vifor (International) AG, priority 2022, published 2026)
Where a name gives a salt, the structure may show the parent alone.

molecular target: T1, ferroportin (Fpn) (Mus musculus, UniProt Q9JHI9); assay: Hepcidin Internalization Assay (J774); type: cell-based; details: J774 cells, 25 nM TMR-hepcidin, 2 hours; average of multiple measurements; read-out: Average (AVE) IC50 of Fpn inhibitors in the hepcidin internalization assay
T1 construct: endogenous in cells; host or cells: J774 mouse macrophage cell line, induced with Fe(III)NTA
T1 sequence (Q9JHI9 1-570): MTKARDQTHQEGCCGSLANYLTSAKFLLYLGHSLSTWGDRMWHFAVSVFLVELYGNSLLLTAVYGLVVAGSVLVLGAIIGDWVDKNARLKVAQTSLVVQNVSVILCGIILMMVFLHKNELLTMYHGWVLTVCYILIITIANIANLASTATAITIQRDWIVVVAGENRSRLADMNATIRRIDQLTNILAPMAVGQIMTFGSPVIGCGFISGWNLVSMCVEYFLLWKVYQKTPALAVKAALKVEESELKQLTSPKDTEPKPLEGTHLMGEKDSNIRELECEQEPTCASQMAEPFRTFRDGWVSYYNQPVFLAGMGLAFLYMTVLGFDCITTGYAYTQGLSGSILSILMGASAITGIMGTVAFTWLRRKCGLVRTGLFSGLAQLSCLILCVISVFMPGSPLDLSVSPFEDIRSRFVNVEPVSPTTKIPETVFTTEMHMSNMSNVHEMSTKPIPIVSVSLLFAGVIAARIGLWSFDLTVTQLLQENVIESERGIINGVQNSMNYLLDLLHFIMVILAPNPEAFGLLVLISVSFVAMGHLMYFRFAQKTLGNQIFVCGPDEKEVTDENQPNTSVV
Excerpt: This cellular assay allows quantification of the binding of hepcidin to ferroportin (Fpn) through microscopic detection of internalization of a fluorescently labeled hepcidin into J774 cells. […] Binding of hepcidin to Fpn triggers internalization and degradation of both hepcidin and Fpn. […] Therefore, microscopic detection of cell-associated TMR fluorescence is a measure of hepcidin binding to Fpn and internalization of hepcidin and Fpn. If TMR-hepcidin is prevented from binding to Fpn, cellular TMR fluorescence remains low (Durrenberger et al, 2013). The effect of small molecular weight Fpn inhibitor compounds in this assay was evaluated in vitro as described below. […] Cat. 655090) and grown at 37° C. with 5% CO2. After overnight incubation, cells were washed 3 times with pre-warmed DMEM w/o phenol red, 30 μl/well of DMEM w/o phenol red was added after the final wash and 10 μl/well of dilution series of test compounds were added in triplicates. […] Cells were incubated in a total volume of 50 μl at 37° C. with 5% CO2 for 2 hours, then Hoechst 33342 dye was added to a final concentration of 0.5 μg/ml to stain nuclei and further incubated for 10 min. at 37° C. with 5% CO2. […] After removal of the paraformaldehyde solution, cells were washed 3 times with PBS leaving 100 μl per well and the plates were sealed with foil plate seal. […] The acquired image data was analysed with the […] analysis software. […] IC50 values were calculated with the Sum(Mean) raw data using “log(inhibitor) vs. response” curve fitting of Prism 5 software (GraphPad Software Inc., version 5.02). For each data set the fit of the “log(inhibitor) vs. response (three parameters)” model was compared to the fit of the “log(inhibitor) vs. response-Variable slope (four parameters)” model and the IC50 data of the preferred model was used.

Compound | IC50
Fc1cccnc1CNc1nccc2oc(CCNCCc3nc4cc5c(cc4n3-c3ccccc3)OCCO5)nc12 [Example Compound No. 23, N-((3-fluoropyridin-2-yl)methyl)-2-(2-((2-(1-phenyl-6,7-dihydro-1H-[1,4]dioxino[2′,3′:4,5]benzo[1,2-d]imidazol-2-yl)ethyl)amino)ethyl)oxazolo[4,5-c]pyridin-4-amine formate] | 18 nM
CN(C)CCn1c(CCNCCc2nc3c(NCc4ncccc4F)nccc3o2)nc2ccccc21 [Example Compound No. 20, 2-(2-((2-(1-(2-(dimethylamino)ethyl)-1H-benzo[d]imidazol-2-yl)ethyl)amino)ethyl)-N-((3-fluoropyridin-2-yl)methyl)oxazolo[4,5-c]pyridin-4-amine] | 20000 nM
Fc1cccnc1CNc1nccc2oc(CCNCCc3nc4ccccc4n3-c3ccccc3)nc12 [Example Compound No. 17, N-((3-fluoropyridin-2-yl)methyl)-2-(2-((2-(1-phenyl-1H-benzo[d]imidazol-2-yl)ethyl)amino)ethyl)oxazolo[4,5-c]pyridin-4-amine] | 25 nM
Fc1cccnc1CNc1nccc2oc(CCNCCc3nc4ccccc4n3Cc3ccccc3)nc12 [Example Compound No. 10, 2-(2-((2-(1-benzyl-1H-benzo[d]imidazol-2-yl)ethyl)amino)ethyl)-N-((3-fluoropyridin-2-yl)methyl)oxazolo[4,5-c]pyridin-4-amine] | 8 nM
COCCOCCn1c(CCNCCc2nc3c(NCc4ncccc4F)nccc3o2)nc2ccccc21 [Example Compound No. 3, N-((3-fluoropyridin-2-yl)methyl)-2-(2-((2-(1-(2-(2-methoxyethoxy)ethyl)-1H-benzo[d]imidazol-2-yl)ethyl)amino)ethyl)oxazolo[4,5-c]pyridin-4-amine] | 9 nM
Fc1cccnc1CNc1nccc2oc(CCNCCc3nc4ccccc4n3Cc3ccccn3)nc12 [Example Compound No. 15, N-((3-fluoropyridin-2-yl)methyl)-2-(2-((2-(1-(pyridin-2-ylmethyl)-1H-benzo[d]imidazol-2-yl)ethyl)amino)ethyl)oxazolo[4,5-c]pyridin-4-amine] | 9500 nM
Cn1c(CCNCCc2nc3c(NCc4ncccc4F)nccc3o2)nc2ccccc21 [Example Compound No. 22, N-((3-fluoropyridin-2-yl)methyl)-2-(2-((2-(1-methyl-1H-benzo[d]imidazol-2-yl)ethyl)amino)ethyl)oxazolo[4,5-c]pyridin-4-amine formate] | 40 nM
COCCn1c(CCNCCc2nc3c(NCc4ncccc4F)nccc3o2)nc2ccccc21 [Example Compound No. 1, N-((3-fluoropyridin-2-yl)methyl)-2-(2-((2-(1-(2-methoxyethyl)-1H-benzo[d]imidazol-2-yl)ethyl)amino)ethyl)oxazolo[4,5-c]pyridin-4-amine] | 9 nM
Fc1cccnc1CNc1nccc2oc(CCNCCc3nc4ccccc4n3CCc3ccccc3)nc12 [Example Compound No. 16, N-((3-fluoropyridin-2-yl)methyl)-2-(2-((2-(1-phenethyl-1H-benzo[d]imidazol-2-yl)ethyl)amino)ethyl)oxazolo[4,5-c]pyridin-4-amine] | 40200 nM

Further lines, results first:

IC50 | Compound
7 nM | COCCn1c(CCN2CC(c3nc4c(NCc5ncccc5F)nccc4o3)C2)nc2ccccc21 [Example Compound No. 5, N-((3-fluoropyridin-2-yl)methyl)-2-(1-(2-(1-(2-methoxyethyl)-1H-benzo[d]imidazol-2-yl)ethyl)azetidin-3-yl)oxazolo[4,5-c]pyridin-4-amine]
18 nM | CCn1c(CCNCCc2nc3c(NCc4ncccc4F)nccc3o2)nc2ccccc21 [Example Compound No. 19, 2-(2-((2-(1-ethyl-1H-benzo[d]imidazol-2-yl)ethyl)amino)ethyl)-N-((3-fluoropyridin-2-yl)methyl)oxazolo[4,5-c]pyridin-4-amine]
5 nM | COc1cccc(Cn2c(CCNCCc3nc4c(NCc5ncccc5F)nccc4o3)nc3ccccc32)c1 [Example Compound No. 11, N-((3-fluoropyridin-2-yl)methyl)-2-(2-((2-(1-(3-methoxybenzyl)-1H-benzo[d]-imidazol-2-yl)ethyl)amino)ethyl)oxazolo[4,5-c]pyridin-4-amine]
31 nM | CCn1c(CCNCCc2nc3c(NCc4ncccc4F)nccc3o2)nc2cc3c(cc21)OCCO3 [Example Compound No. 21, 2-(2-((2-(1-ethyl-6,7-dihydro-1H-[1,4]dioxino[2′,3′:4,5]benzo[1,2-d]imidazol-2-yl)ethyl)amino)ethyl)-N-((3-fluoropyridin-2-yl)methyl)oxazolo[4,5-c]pyridin-4-amine formate]
827 nM | Fc1cccnc1CNc1nccc2oc(CCNCCc3nc4cc5c(cc4n3CCN3CCOCC3)OCCO5)nc12 [Example Compound No. 9, N-((3-fluoropyridin-2-yl)methyl)-2-(2-((2-(1-(2-morpholinoethyl)-6,7-dihydro-1H-[1,4]dioxino[2′,3′:4,5]benzo[1,2-d]imidazol-2-yl)ethyl)amino)ethyl)oxazolo[4,5-c]pyridin-4-amine]
83 nM | COCCn1c(CCNCCc2nc3c(NCc4ncccc4F)nccc3o2)nc2cc3c(cc21)OCCO3 [Example Compound No. 7, N-((3-fluoropyridin-2-yl)methyl)-2-(2-((2-(1-(2-methoxyethyl)-6,7-dihydro-1H-[1,4]dioxino-[2′,3′:4,5]benzo[1,2-d]imidazol-2-yl)ethyl)amino)ethyl)oxazolo[4,5-c]pyridin-4-amine]
5 nM | Fc1cccnc1CNc1nccc2oc(CCNCCc3nc4cc5c(cc4n3CC3CC3)OCCO5)nc12 [Example Compound No. 13, 2-(2-((2-(1-(cyclopropylmethyl)-6,7-dihydro-1H-[1,4]dioxino[2′,3′:4,5]benzo[1,2-d]-imidazol-2-yl)ethyl)amino)ethyl)-N-((3-fluoropyridin-2-yl)methyl)oxazolo[4,5-c]pyridin-4-amine]
28 nM | Fc1cccnc1CNc1nccc2oc(CCNCCc3nc4ccccc4n3Cc3cccc(Cl)c3)nc12 [Example Compound No. 12, 2-(2-((2-(1-(3-chlorobenzyl)-1H-benzo[d]imidazol-2-yl)ethyl)amino)ethyl)-N-((3-fluoropyridin-2-yl)methyl)oxazolo[4,5-c]pyridin-4-amine]
11 nM | COCCOCCn1c(CCN2CC(c3nc4c(NCc5ncccc5F)nccc4o3)C2)nc2ccccc21 [Example Compound No. 6, N-((3-fluoropyridin-2-yl)methyl)-2-(1-(2-(1-(2-(2-methoxyethoxy)ethyl)-1H-benzo[d]imidazol-2-yl)ethyl)azetidin-3-yl)oxazolo[4,5-c]pyridin-4-amine]
7 nM | Fc1cccnc1CNc1nccc2oc(CCNCCc3nc4ccccc4n3CCN3CCOCC3)nc12 [Example Compound No. 8, N-((3-fluoropyridin-2-yl)methyl)-2-(2-((2-(1-(2-morpholinoethyl)-1H-benzo[d]imidazol-2-yl)ethyl)amino)ethyl)oxazolo[4,5-c]pyridin-4-amine]
20000 nM | CN1CCN(CCn2c(CCNCCc3nc4c(NCc5ncccc5F)nccc4o3)nc3cc4c(cc32)OCCO4)CC1 [Example Compound No. 18, N-((3-fluoropyridin-2-yl)methyl)-2-(2-((2-(1-(2-(4-methylpiperazin-1-yl)ethyl)-6,7-dihydro-1H-[1,4]dioxino[2′,3′:4,5]benzo[1,2-d]imidazol-2-yl)ethyl)amino)ethyl)oxazolo[4,5-c]pyridin-4-amine]
